Molecules are shown by their SMILES.

One test has as its target T1, Ba/F3 TYK2 (Homo sapiens, UniProt P29597).
T1 construct: The likeliest candidate is TEL (ETV6) N-terminal oligomerisation domain fused to the TYK2 kinase domain; BCR, another partner, or no partner are also possible
The experiment in a line: CellTiter-Glo cell proliferation, Ba/F3 TYK2. Particulars: 72 hours; read-out: Ba/F3 IC50 TYK2. It counts as cell-based, murine.

The next test deals with T2, JAK3 (Homo sapiens, UniProt P52333).
T2 construct: purchased INVITROGEN (Select Screening assay service)
T2 sequence (P52333 1-1124): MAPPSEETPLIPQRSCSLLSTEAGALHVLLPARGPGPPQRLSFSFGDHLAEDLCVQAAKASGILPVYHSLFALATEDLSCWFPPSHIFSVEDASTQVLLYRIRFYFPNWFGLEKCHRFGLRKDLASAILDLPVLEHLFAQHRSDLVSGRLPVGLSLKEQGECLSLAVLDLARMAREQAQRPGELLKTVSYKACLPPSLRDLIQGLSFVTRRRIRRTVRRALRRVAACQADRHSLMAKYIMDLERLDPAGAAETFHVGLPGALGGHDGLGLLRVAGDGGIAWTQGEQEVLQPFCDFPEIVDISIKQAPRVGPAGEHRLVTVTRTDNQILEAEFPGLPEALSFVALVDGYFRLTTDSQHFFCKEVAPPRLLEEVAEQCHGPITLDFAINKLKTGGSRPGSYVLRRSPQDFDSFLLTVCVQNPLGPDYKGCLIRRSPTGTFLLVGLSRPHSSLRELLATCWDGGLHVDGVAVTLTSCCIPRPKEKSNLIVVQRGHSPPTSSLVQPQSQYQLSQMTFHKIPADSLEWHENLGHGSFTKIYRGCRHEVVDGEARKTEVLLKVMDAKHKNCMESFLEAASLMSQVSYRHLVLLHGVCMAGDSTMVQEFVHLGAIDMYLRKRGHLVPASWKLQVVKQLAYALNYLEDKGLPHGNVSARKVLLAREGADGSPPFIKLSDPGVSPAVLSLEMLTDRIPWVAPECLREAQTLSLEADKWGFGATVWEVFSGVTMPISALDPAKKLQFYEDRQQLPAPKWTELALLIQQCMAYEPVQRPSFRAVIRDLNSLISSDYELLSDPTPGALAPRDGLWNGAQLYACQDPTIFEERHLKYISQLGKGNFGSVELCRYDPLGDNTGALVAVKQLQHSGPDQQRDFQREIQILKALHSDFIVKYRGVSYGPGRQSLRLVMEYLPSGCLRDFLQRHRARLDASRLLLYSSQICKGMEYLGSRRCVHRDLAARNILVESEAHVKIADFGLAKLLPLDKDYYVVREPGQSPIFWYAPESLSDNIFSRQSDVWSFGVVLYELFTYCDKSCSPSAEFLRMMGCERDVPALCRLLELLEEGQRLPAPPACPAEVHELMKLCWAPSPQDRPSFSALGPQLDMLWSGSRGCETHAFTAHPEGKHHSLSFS
In words: INVITROGEN Select Screening assay, enzymatic IC50, JAK3. Type of test: biochemical.

The target of another test is T3, Ba/F3 JAK1 (Homo sapiens, UniProt P23458).
T3 construct: candidate: TEL (ETV6) N-terminal oligomerisation domain
In words: CellTiter-Glo cell proliferation, Ba/F3 JAK1. It counts as cell-based, murine. Particulars: 72 hours; read-out: Ba/F3 IC50 JAK1. In general terms: Cellular ATP, detected with luciferase, serves as a proxy for viable cell number.

A further test deals with T4, Ba/F3 ABL (Homo sapiens, UniProt P00519).
T4 construct: candidates: BCR or TEL (ETV6)
In words: CellTiter-Glo cell proliferation, Ba/F3 ABL. It counts as cell-based, murine. Particulars: 72 hours; read-out: Ba/F3 IC50 ABL. As to the method:
CellTiter-Glo® Luminescent cell viability assay (Promega) was used to assess cell survival following treatment with the compounds described herein. Cells were seeded into 384 well plates with the EL406 Combination Washer Dispenser (BioTek Instruments, Inc.), and the compounds were injected into the cells culture media with the JANUS Automated Workstation (PerkinElmer Inc.). Cells were treated with a series diluted inhibitors (20 to 0.04 μM) for 72 hours at 37° C. Luminescent measurement is performed using the 2104 Envision® Multilabel Reader (PerkinElmer Inc.). The cell lines employed include Ba/F3 (a murine interleukin-3 dependent pro-B cell line), NKL (a Natural Killer Cell Lymphoma (NKCL) cell line), CMK (an Acute Megakaryoblastic Leukemia (AMKL) cell line).

In another test the target is T5, Ba/F3 JAK3 (Homo sapiens, UniProt P52333).
T5 construct: candidate: TEL (ETV6) N-terminal oligomerisation domain
T5 sequence (P52333 1-1124): T2 sequence (P52333 1-1124)
In words: CellTiter-Glo cell proliferation, Ba/F3 JAK3. Particulars: 72 hours; read-out: Ba/F3 IC50 JAK3. Type of test: cell-based, murine.

A further test addresses T6, Ba/F3 JAK2 (Homo sapiens, UniProt O60674).
T6 construct: candidate: TEL (ETV6) N-terminal oligomerisation domain
The experiment in a line: CellTiter-Glo cell proliferation, Ba/F3 JAK2. It counts as cell-based, murine. As to conditions: 72 hours; read-out: Ba/F3 IC50 JAK2.

The target of a further test is T7, AURKA (Homo sapiens, UniProt O14965).
T7 construct: purchased INVITROGEN (Select Screening assay service)
T7 sequence (O14965 1-403): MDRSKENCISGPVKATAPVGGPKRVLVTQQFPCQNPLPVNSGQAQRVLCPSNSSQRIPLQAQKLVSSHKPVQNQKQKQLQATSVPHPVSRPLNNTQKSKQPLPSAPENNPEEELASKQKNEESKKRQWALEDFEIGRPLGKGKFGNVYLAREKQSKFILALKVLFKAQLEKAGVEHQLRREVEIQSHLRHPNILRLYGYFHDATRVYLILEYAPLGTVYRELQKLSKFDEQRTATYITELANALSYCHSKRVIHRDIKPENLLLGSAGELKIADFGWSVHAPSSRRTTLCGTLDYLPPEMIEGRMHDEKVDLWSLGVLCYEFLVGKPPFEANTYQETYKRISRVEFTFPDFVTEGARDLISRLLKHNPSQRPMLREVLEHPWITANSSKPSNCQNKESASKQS
The experiment in a line: INVITROGEN Select Screening assay, enzymatic IC50, AURKA. It counts as biochemical. The text has this: (§1) The in vitro activity of the compounds described herein in inhibiting JAK3 and other kinases were obtained using an INVITROGEN Select Screening assay as known in the art.

The target in the next test is T8, AURKB (Homo sapiens, UniProt Q96GD4).
T8 construct: purchased INVITROGEN (Select Screening assay service)
In words: INVITROGEN Select Screening assay, enzymatic IC50, AURKB. Type of test: biochemical.
From the text: as §1

T3 sequence (P23458 whole entry, change not shown, the tested form may be a part): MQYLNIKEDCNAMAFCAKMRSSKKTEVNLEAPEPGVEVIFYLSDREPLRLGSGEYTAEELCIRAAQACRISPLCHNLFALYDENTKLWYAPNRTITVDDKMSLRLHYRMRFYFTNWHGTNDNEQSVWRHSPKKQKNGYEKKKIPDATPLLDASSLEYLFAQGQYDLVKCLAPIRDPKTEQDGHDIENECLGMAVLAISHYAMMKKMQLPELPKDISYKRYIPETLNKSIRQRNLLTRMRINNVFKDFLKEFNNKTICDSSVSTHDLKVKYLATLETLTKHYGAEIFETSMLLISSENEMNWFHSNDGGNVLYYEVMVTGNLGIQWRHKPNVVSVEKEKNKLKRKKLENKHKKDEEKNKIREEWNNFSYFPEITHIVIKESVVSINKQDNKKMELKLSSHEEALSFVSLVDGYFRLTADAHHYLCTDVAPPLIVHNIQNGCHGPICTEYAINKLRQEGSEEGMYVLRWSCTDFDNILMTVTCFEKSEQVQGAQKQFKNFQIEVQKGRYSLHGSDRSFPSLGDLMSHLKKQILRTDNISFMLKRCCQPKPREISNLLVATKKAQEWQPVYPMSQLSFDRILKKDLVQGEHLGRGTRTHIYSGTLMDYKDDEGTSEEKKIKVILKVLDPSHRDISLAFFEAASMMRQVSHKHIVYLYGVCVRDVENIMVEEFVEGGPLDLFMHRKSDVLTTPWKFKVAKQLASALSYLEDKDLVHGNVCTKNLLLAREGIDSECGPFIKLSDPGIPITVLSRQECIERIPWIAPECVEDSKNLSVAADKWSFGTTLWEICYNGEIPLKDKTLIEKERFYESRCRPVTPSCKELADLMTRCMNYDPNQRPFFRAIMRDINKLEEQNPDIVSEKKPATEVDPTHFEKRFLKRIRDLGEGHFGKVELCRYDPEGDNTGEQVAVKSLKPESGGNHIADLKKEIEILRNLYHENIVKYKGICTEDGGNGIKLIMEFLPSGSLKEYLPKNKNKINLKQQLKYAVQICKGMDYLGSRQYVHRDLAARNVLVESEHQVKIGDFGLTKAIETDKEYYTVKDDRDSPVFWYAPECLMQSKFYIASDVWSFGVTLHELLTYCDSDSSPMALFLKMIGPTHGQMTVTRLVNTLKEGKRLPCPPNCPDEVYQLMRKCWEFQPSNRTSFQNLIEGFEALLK
T6 sequence (O60674 whole entry, change not shown, the tested form may be a part): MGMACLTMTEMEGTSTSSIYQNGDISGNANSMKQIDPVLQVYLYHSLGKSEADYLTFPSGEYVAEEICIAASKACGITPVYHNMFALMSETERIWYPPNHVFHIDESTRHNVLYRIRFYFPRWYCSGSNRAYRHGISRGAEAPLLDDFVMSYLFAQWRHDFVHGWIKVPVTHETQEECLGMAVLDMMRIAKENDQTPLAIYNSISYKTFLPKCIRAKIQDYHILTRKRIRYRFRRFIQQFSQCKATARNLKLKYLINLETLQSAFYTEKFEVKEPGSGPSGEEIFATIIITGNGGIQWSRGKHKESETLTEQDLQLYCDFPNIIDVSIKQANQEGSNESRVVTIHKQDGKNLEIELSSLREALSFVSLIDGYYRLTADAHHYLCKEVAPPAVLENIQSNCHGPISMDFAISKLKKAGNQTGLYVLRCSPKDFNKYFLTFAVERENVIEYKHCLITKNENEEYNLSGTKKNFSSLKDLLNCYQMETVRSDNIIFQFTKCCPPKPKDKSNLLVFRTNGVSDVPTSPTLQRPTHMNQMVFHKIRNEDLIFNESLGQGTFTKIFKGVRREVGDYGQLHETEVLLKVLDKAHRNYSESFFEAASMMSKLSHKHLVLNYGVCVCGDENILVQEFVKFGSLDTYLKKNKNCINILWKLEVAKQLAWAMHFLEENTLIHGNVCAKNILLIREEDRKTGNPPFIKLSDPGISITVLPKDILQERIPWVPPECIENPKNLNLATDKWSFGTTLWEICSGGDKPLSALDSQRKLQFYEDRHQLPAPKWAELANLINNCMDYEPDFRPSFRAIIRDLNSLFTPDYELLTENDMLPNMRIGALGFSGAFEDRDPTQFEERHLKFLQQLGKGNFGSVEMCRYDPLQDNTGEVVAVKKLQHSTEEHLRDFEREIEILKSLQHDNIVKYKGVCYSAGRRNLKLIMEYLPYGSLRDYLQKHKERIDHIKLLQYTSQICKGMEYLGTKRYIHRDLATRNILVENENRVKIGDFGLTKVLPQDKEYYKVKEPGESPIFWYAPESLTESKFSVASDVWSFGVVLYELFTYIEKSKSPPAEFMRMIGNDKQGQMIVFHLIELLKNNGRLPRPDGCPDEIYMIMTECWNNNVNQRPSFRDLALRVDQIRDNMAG
T1 sequence (P29597 whole entry, change not shown, the tested form may be a part): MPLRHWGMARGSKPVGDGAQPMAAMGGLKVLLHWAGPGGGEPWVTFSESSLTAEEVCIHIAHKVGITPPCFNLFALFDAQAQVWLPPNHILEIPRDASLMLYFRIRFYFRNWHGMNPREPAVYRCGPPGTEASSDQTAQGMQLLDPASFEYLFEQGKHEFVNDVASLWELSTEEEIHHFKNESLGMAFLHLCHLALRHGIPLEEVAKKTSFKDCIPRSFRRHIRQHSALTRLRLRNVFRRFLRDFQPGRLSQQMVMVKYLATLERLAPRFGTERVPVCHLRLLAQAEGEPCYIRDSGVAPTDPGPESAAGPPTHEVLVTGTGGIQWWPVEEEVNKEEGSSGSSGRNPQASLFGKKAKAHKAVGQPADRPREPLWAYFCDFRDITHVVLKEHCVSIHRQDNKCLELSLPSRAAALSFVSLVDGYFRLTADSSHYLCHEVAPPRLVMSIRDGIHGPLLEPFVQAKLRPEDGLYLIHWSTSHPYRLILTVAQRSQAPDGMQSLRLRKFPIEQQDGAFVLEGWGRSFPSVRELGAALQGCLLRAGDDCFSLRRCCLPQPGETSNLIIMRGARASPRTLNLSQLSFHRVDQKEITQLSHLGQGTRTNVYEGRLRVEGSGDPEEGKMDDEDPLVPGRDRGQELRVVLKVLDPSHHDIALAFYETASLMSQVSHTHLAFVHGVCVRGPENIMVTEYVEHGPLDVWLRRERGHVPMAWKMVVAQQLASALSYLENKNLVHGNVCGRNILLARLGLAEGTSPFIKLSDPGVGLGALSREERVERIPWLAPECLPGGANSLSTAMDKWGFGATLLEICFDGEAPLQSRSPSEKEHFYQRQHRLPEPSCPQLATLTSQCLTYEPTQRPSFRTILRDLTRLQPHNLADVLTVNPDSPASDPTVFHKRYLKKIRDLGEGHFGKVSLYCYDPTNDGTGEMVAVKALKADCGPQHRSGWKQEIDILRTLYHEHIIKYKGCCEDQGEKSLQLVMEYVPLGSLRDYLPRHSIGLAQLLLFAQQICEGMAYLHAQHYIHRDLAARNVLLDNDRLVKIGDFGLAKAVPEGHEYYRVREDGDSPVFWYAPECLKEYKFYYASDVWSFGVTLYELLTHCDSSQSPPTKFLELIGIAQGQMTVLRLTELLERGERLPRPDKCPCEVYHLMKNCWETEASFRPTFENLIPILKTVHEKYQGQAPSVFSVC
T4 sequence (P00519 whole entry, change not shown): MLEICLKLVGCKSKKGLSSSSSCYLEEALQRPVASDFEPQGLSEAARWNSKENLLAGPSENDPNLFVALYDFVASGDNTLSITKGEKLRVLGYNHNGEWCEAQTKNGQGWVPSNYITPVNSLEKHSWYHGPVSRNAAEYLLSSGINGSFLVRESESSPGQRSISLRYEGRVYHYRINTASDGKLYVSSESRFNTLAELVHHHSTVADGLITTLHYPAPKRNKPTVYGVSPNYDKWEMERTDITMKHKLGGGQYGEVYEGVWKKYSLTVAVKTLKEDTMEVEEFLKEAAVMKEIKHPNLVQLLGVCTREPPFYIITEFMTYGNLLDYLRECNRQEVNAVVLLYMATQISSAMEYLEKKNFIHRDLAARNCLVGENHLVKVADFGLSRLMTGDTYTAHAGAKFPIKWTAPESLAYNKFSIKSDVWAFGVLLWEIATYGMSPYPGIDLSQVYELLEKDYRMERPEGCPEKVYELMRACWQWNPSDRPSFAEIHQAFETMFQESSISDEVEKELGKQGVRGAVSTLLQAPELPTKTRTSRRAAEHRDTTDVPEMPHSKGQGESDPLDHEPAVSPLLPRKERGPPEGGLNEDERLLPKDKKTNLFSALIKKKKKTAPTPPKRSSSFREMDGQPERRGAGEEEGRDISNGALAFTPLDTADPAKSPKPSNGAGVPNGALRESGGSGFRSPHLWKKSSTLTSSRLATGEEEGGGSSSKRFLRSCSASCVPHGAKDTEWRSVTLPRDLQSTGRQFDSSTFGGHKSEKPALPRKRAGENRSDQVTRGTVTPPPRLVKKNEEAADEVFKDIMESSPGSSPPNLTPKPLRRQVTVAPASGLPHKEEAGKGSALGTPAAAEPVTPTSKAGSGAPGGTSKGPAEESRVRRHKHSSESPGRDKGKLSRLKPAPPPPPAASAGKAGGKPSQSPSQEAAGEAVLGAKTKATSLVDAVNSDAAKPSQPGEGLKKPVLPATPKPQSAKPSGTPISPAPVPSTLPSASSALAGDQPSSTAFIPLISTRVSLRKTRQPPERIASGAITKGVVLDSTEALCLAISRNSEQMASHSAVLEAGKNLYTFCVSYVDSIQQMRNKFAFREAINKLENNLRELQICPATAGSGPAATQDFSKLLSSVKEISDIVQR
T8 sequence (Q96GD4 whole entry): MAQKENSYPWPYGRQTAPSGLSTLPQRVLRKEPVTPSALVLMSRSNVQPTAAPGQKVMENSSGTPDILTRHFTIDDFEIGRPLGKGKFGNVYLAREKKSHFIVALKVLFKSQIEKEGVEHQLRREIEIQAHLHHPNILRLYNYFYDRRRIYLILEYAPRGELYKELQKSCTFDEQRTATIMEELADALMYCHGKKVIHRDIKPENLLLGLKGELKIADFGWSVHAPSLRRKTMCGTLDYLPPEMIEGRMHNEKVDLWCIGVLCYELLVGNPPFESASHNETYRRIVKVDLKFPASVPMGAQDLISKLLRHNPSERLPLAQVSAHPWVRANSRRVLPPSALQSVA

For `C=CC(=O)Nc1cccc(CNc2cc(Nc3cnn(C)c3)ncn2)c1` [Compound 38], at Ba/F3 TYK2, the GI50 was 78000 nM.

`C=CC(=O)Nc1cccc(CNc2nc(Nc3cc(F)c(C4CCOCC4)c(F)c3)ncc2Cl)c1` [Compound 50]: the GI50 at Ba/F3 TYK2 is over 50000 nM; at Ba/F3 JAK1, over 50000 nM; at Ba/F3 ABL, over 50000 nM; on Ba/F3 JAK3 it was 100 nM; at Ba/F3 JAK2, over 50000 nM. The compound further gave an IC50 against JAK3 of 20.5 nM.

On to `C=CC(=O)Nc1cccc(CNc2cc(Nc3ccc(N4CCN(C)CC4)cc3OC)ncn2)c1` [Compound 25], for which the GI50 on Ba/F3 TYK2 stood at 1530 nM; at Ba/F3 JAK1, 2880 nM; on Ba/F3 ABL, 4550 nM; at Ba/F3 JAK3, 246 nM; at Ba/F3 JAK2 it was 2300 nM. The same compound registered an IC50 against JAK3 of 15.3 nM.

Regarding `C=CC(=O)Nc1ccc(CNc2cc(Nc3ccc(N4CCN(C)CC4)cc3)ncn2)cc1` [Compound 32], the GI50 on Ba/F3 ABL was 22400 nM.

On JAK3, `C=CC(=O)Nc1cccc(CNc2nc(Nc3ccc(N4CCN(C)CC4)cc3OC)ncc2C2CC2)c1` [Compound 91] showed a half-maximal inhibitory concentration (IC50) of 220 nM.

Turning to `C=CC(=O)Nc1ccc(CN2C(=O)N(C)Cc3cnc(Nc4ccc(N5CCN(C)CC5)cc4)nc32)cc1` [Compound 35], the GI50 on Ba/F3 TYK2 came out at 10100 nM; on Ba/F3 JAK1, 87600 nM; at Ba/F3 ABL it was 8840 nM; on Ba/F3 JAK3 it was 880 nM; at Ba/F3 JAK2, 14600 nM. The compound further registered a half-maximal inhibitory concentration (IC50) at JAK3 of 30.4 nM.

With `C=CC(=O)Nc1ccc(CNc2nc(Nc3ccc(N4CCOCC4)cc3)ncc2Cl)cc1` [Compound 13], the concentration for half-maximal inhibition (IC50) against AURKA was found to be 173 nM; against AURKB it was 835 nM.

As to `C=CC(=O)Nc1ccc(CNc2nc(Nc3ccc(N4CCN(C)CC4)cc3OC)ncc2Br)cc1` [Compound 3], the IC50 against JAK3 is 33.2 nM.

Turning to `C=CC(=O)Nc1ccc(CN2C(=O)NCc3cnc(Nc4ccc(N5CCN(C)CC5)cc4)nc32)cc1` [Compound 34], the GI50 was 29500 nM at Ba/F3 TYK2; over 10000 nM on Ba/F3 JAK1; 29200 nM on Ba/F3 ABL; 576 nM at Ba/F3 JAK3; 30100 nM at Ba/F3 JAK2. In addition, the 50% inhibitory concentration (IC50) at JAK3 is 1.21 nM.

`C=CC(=O)Nc1cccc(CNc2nc(Nc3cc(OC)c(N4CCN(C)CC4)cc3OC)ncc2Cl)c1` [Compound 57]: the IC50 against JAK3 is 170 nM.

`C=CC(=O)Nc1ccc(CNc2nc(Nc3ccc(N4CCN(C)CC4)cc3)ncc2Cl)cc1` [Compound 15]: the GI50 at Ba/F3 TYK2 is 144 nM; at Ba/F3 JAK1, 172 nM; on Ba/F3 ABL it was 158 nM; on Ba/F3 JAK3, 10.6 nM; at Ba/F3 JAK2, 200 nM. On JAK3, this compound showed an IC50 of 0.689 nM.

With `C=CC(=O)Nc1cccc(CN2CCc3cnc(Nc4cnn(C)c4)nc32)c1` [Compound 48], the GI50 on Ba/F3 TYK2 was 8850 nM; at Ba/F3 JAK1, 56400 nM; on Ba/F3 ABL it was over 50000 nM; on Ba/F3 JAK3, over 50000 nM; at Ba/F3 JAK2, 18100 nM. Further, the IC50 at JAK3 was 8040 nM.

As for `C=CC(=O)Nc1cccc(CN2C(=O)N(C)Cc3cnc(Nc4cnn(C)c4)nc32)c1` [Compound 43], the GI50 is 50100 nM on Ba/F3 TYK2; 14000 nM on Ba/F3 JAK1; over 50000 nM at Ba/F3 ABL; 400 nM at Ba/F3 JAK3; over 50000 nM at Ba/F3 JAK2. At JAK3, this compound had a half-maximal inhibitory concentration (IC50) of 20.9 nM.

The compound `C=CC(=O)Nc1ccc(CNc2nc(Nc3ccc(N4CCN(C)CC4)cc3OC)ncc2C(F)(F)F)cc1` [Compound 4] yielded an IC50 against JAK3 of 57.2 nM.

As for `C=CC(=O)Nc1ccc(CNc2nc(Nc3ccc(N4CCOCC4)c(F)c3)ncc2Cl)cc1` [Compound 14], the GI50 was 607 nM at Ba/F3 TYK2; 1300 nM at Ba/F3 JAK1; 2520 nM at Ba/F3 ABL; 30.5 nM at Ba/F3 JAK3; 1870 nM at Ba/F3 JAK2. The half-maximal inhibitory concentration (IC50) at JAK3 came to 3.5 nM; against AURKA it was 279 nM; on AURKB, 1310 nM.

Compound `C=CC(=O)Nc1cccc(CNc2nc(Nc3cc(Cl)c(C4CCOCC4)c(Cl)c3)ncc2Cl)c1` [Compound 45] yielded a 50% inhibitory concentration (IC50) at JAK3 of 100 nM.

Turning to `C=CC(=O)Nc1cccc(CNc2nc(Nc3cnn(CCOCCOCCOCCNC(=O)CCCC[C@@H]4SC[C@@H]5NC(=O)N[C@@H]54)c3)ncc2Cl)c1` [Compound 93], the GI50 is 15400 nM at Ba/F3 TYK2, 18700 nM at Ba/F3 JAK1, over 50000 nM on Ba/F3 ABL and over 50000 nM at Ba/F3 JAK2.

`C=CC(=O)Nc1ccc(CNc2nc(Nc3ccc(N4CCN(C)CC4)c(F)c3)ncc2Cl)cc1` [Compound 16]: the GI50 at Ba/F3 TYK2 was 284 nM; on Ba/F3 JAK1, 379 nM; at Ba/F3 ABL it was 453 nM; on Ba/F3 JAK3, 17.8 nM; on Ba/F3 JAK2 it was 538 nM. The compound further returned an IC50 at JAK3 of 2.79 nM.

On JAK3, `CCC(=O)Nc1ccc(CNc2nc(Nc3ccc(N4CCN(C)CC4)cc3OC)ncc2Cl)cc1` [Compound 5] had an IC50 of 5420 nM.

What is called IC50 is the concentration needed to halve the response being measured. Low readings indicate higher potency, high ones lower potency.
